Reference: patent US20240262833A1, “FUSED HETEROCYCLIC DERIVATIVES AS NEGATIVE ALLOSTERIC MODULATORS OF MGLU7 RECEPTOR” (Addex Pharma S.A., priority 2021, published 2024)
pIC50: −log10 of the molar value.

Target: T1, human metabotropic glutamate 7 receptor (hmGlu7) (Homo sapiens, UniProt Q14831)
T1 construct: expressed in transfected cells
Assay: mGlu7 assay on HEK-expressing human mGlu7: fluorescent cell based Ca2+ mobilization assay (FLIPR), inhibition of EC80 L-AP4 response
Settings: HEK-293 cells expressing hmGlu7; EC80 L-AP4 stimulation; mean of at least three independent experiments in duplicate; read-out: Ca2+ Flux (mean IC50)
From the text: mGlu7 Assay on HEK-Expressing Human mGlu7
The cDNA encoding the human metabotropic glutamate 7 receptor (hmGlu7), (accession number NM_181874.2, NCBI Nucleotide database browser), was subcloned into an expression vector containing also the hygromycin resistance gene. In parallel, the cDNA encoding a G protein allowing redirection of the activation signal to intracellular calcium flux was subcloned into a different expression vector containing also the Puromycin resistance gene. Transfection of both these vectors into HEK293 cells with PolyFect reagent (Qiagen) according to supplier's protocol, and hygromycin and puromycin treatment allowed selection of antibiotic resistant cells which had integrated stably one or more copies of the plasmids. Positive cellular clones expressing hmGlu7 were identified in a functional assay measuring changes in calcium fluxes in response to glutamate and L-AP4 or known mGlu7 orthosteric antagonists.
HEK-293 cells expressing hmGlu7 were maintained in media containing DMEM, Fetal Bovine Serum (10%), Glutamax™ (2 mM), penicillin (100 units/mL), streptomycin (100 μg/mL), geneticin (100 μg/mL) and hygromycin-B (40 μg/mL) and puromycin (1 μg/mL) at 37° C. with 5% CO2 in a humidified atmosphere.
Fluorescent Cell Based-Ca^2+ Mobilization Assay Human mGlu7 HEK-293 cells were plated out 24 hours prior to a fluorescent cell-based calcium mobilization assay using FLIPR^384 assay (Molecular Device, Sunnyvale, CA, USA) in black-walled, clear-bottomed, poly-L-ornithine-coated 384-well plates at a density of 25,000 cells/well in a glutamine/glutamate free DMEM medium containing fetal bovine serum (10%), penicillin (100 units/mL), streptomycin (100 μg/mL) and doxycyline (1 μg/ml) at 37° C. with 5% CO2 in a humidified atmosphere.
On the day of the assay, the medium was aspirated and the cells were loaded with a 3 μM solution of Fluo4-AM (LuBioScience, Lucerne, Switzerland) in 0.03% pluronic acid. After 1 hour at 37° C./5% CO2, the non incorporated dye was removed by washing cell plate with the assay buffer. All assays were performed in a pH 7.4 buffered-solution containing 20 mM HEPES, 143 mM NaCl, 6 mM KCl, 1 mM MgSO4, 1 mM CaCl2, 0.125 mM sulfinpyrazone and 0.1% glucose.
After 10 s of basal fluorescence recording, various concentrations of the compounds of the invention were added to the cells. Changes in fluorescence levels were first monitored for 180 s in order to detect any agonist activity of the compounds. Then the cells were stimulated by an EC80 L-AP4 concentration for an additional 110 s in order to measure inhibiting activities of the compounds of the invention. EC80 L-AP4 concentration is the concentration giving 80% of the maximal glutamate response.
The concentration-response curves of L-AP4 or representative compounds of the present invention were generated using the Prism GraphPad software (Graph Pad Inc, San Diego, USA). The curves were fitted to a four-parameter logistic equation: […]
allowing determination of IC50 values.
The Table 3 below represents the mean IC50 obtained from at least three independent experiments of selected molecules performed in duplicate.

T1 sequence (Q14831 35-922 isoform Q14831-2): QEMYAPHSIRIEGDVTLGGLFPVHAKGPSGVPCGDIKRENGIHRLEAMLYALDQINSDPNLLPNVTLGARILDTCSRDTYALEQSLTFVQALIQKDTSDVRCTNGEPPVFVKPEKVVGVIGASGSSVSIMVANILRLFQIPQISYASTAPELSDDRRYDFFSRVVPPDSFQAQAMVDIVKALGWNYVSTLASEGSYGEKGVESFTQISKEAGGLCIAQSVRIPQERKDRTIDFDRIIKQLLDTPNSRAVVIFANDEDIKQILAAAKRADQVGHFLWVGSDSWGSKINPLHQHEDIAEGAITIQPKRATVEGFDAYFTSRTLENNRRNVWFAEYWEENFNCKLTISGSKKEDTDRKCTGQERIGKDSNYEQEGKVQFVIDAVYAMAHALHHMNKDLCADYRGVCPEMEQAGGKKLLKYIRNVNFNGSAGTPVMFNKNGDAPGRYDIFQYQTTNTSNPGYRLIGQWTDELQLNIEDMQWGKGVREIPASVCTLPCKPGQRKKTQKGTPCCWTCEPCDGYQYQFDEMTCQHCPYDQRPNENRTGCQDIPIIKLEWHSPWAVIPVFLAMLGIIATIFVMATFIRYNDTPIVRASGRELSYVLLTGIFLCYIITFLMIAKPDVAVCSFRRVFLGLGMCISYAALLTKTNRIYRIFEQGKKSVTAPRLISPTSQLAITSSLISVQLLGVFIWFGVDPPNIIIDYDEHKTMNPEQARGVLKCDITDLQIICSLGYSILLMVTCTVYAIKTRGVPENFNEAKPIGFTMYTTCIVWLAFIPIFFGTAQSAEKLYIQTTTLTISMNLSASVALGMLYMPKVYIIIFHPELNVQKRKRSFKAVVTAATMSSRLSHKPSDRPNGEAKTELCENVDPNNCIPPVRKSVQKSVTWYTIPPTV

| pIC50 | Structure (SMILES) |
| --- | --- |
| > 7.00 | Cc1c2cnn(-c3ccccn3)c(=O)c2c(C)n1-c1cccc(OC(F)F)c1 [1-202] |
| > 7.00 | Cc1c2cnn(-c3cccc(S(C)(=O)=O)c3)c(=O)c2c(C)n1-c1cccc(N2CCC2)c1 [1-151] |
| 5.00 to 6.00 | Cc1c2cnn(-c3ccccc3)c(=O)c2c(C)n1-c1ccccn1 [1-25] |
| 5.00 to 6.00 | Cc1c2cnn(-c3ccccn3)c(=O)c2c(C)n1-c1cccc(Oc2ccccc2)c1 [1-187] |
| 6.00 to 7.00 | COc1cccc(-n2c(C)c3cnn(-c4ccccn4)c(=O)c3c2C)c1 [1-44] |
| 6.00 to 7.00 | Cc1c2cnn(-c3ccccn3)c(=O)c2c(C)n1-c1ccc2c(c1)OCO2 [1-55] |
| 6.00 to 7.00 | COc1cccc(-n2c(C)c3cnn(-c4ccccn4)c(=O)c3c2C)c1F [1-233] |
| 5.00 to 6.00 | COc1cc(F)ccc1-n1c(C)c2cnn(-c3ccccn3)c(=O)c2c1C [1-191] |
| > 7.00 | Cc1cc(-n2ncc3c(C)n(-c4cccc(N5CCC5)c4)c(C)c3c2=O)ccn1 [1-182] |
| 6.00 to 7.00 | Cc1c2cnn(-c3ccccn3)c(=O)c2c(C)n1-c1cccc(N2CC(F)(F)C2)c1 [1-153] |
| 5.00 to 6.00 | CCc1c2cnn(-c3ccccn3)c(=O)c2c(C)n1-c1cccc(OC)c1 [1-140] |
| > 7.00 | Cc1c2cnn(-c3ccc(C#N)cn3)c(=O)c2c(C)n1-c1cccc(N2CCC2)c1 [1-160] |
| 6.00 to 7.00 | Cc1c2cnn(-c3ccccc3)c(=O)c2c(C)n1-c1cccc(N2CCCC2=O)c1 [1-49] |
| 5.00 to 6.00 | COc1cc(-n2c(C)c3cnn(-c4ccccn4)c(=O)c3c2C)ccc1Cl [1-72] |
| 6.00 to 7.00 | COc1ccnc(-n2ncc3c(C)n(-c4cccc(N5CCC5)c4)c(C)c3c2=O)c1 [1-229] |
| 5.00 to 6.00 | Cc1c2cnn(-c3ccccn3)c(=O)c2c(C)n1-c1cccc(C#N)c1 [1-54] |
| 5.00 to 6.00 | Cc1ccc(-n2c(C)c3cnn(-c4ccccn4)c(=O)c3c2C)nc1 [1-56] |
| > 7.00 | Cc1c2cnn(-c3ccccc3F)c(=O)c2c(C)n1-c1cccc(N2CCC2)c1 [1-177] |

| pIC50 | Structure (SMILES) |
| --- | --- |
| 6.00 to 7.00 | COc1ccc(F)c(-n2c(C)c3cnn(-c4ccccn4)c(=O)c3c2C)c1 [1-194] |
| 6.00 to 7.00 | COCc1cccc(-n2c(C)c3cnn(-c4ccccc4)c(=O)c3c2C)c1 [1-108] |
| 6.00 to 7.00 | Cc1cccc(-n2ncc3c(C)n(-c4cccc(N5CCC5)c4)c(C)c3c2=O)n1 [1-154] |
| 6.00 to 7.00 | Cc1c2cnn(-c3cccc(C(N)=O)c3)c(=O)c2c(C)n1-c1cccc(N2CCC2)c1 [1-152] |
| 5.00 to 6.00 | Cc1c2cnn(-c3cccnc3)c(=O)c2c(C)n1-c1cccc(N2CCOCC2)c1 [1-64] |
| 5.00 to 6.00 | CC(=O)c1ccc(-n2c(C)c3cnn(-c4ccccn4)c(=O)c3c2C)cc1 [1-132] |
| 6.00 to 7.00 | COc1cc(OC)cc(-n2c(C)c3cnn(-c4ccccn4)c(=O)c3c2C)c1 [1-175] |
| 5.00 to 6.00 | Cc1c2cnn(-c3ccccn3)c(=O)c2c(C)n1-c1cccc(N2CCOCC2)c1 [1-90] |
| 6.00 to 7.00 | Cc1c2cnn(-c3ccccn3)c(=O)c2c(C)n1-c1ccc(Cl)cc1 [1-3] |
| 5.00 to 6.00 | Cc1cccc(-n2ncc3c(C)n(-c4cccc(N5CCOCC5)c4)c(C)c3c2=O)c1 [1-84] |
| 5.00 to 6.00 | Cc1c2cnn(-c3ccccn3)c(=O)c2c(C)n1-c1cccc(N2CCCC2=O)c1 [1-111] |
| 6.00 to 7.00 | Cc1ccc(-n2c(C)c3cnn(-c4ccccn4)c(=O)c3c2C)c(C)c1 [1-201] |
| 6.00 to 7.00 | COc1cc(-n2c(C)c3cnn(-c4ccccn4)c(=O)c3c2C)ccc1C [1-79] |
| 5.00 to 6.00 | COc1cc(-n2c(C)c3cnn(-c4ccccn4)c(=O)c3c2C)ccn1 [1-62] |
| > 7.00 | Cc1c2cnn(-c3ccc(F)cn3)c(=O)c2c(C)n1-c1cccc(N2CCC2)c1 [1-173] |
| > 7.00 | Cc1cncc(-n2ncc3c(C)n(-c4cccc(N5CCC5)c4)c(C)c3c2=O)c1 [1-158] |
| > 7.00 | Cc1c2cnn(-c3ncccc3F)c(=O)c2c(C)n1-c1cccc(N2CCC2)c1 [1-225] |

More lines, now with the values behind:

| Structure (SMILES) | pIC50 |
| --- | --- |
| COc1cccc(-n2c(C)c3cnn(-c4ccc(S(N)(=O)=O)cc4)c(=O)c3c2C)c1 [1-120] | > 7.00 |
| COc1cccc(-n2c(C)c3cnn(-c4ccc(C(C)(C)O)cn4)c(=O)c3c2C)c1 [1-216] | > 7.00 |
| COc1cccc(-n2c(C)c3cnn(-c4cccc(C(C)=O)c4)c(=O)c3c2C)c1 [1-147] | 6.00 to 7.00 |
| Cc1c2cnn(-c3ccccc3)c(=O)c2c(C)n1-c1ccccc1F [1-29] | 6.00 to 7.00 |
| COc1ccc(-n2ncc3c(C)n(-c4cccc(N5CCC5)c4)c(C)c3c2=O)cc1CO [1-163] | > 7.00 |
| Cc1c2cnn(-c3cccc(N4CCOCC4)c3)c(=O)c2c(C)n1-c1cccc(N2CCC2)c1 [1-167] | 6.00 to 7.00 |
| Cc1c2cnn(-c3ccccc3)c(=O)c2c(C)n1-c1ccccc1Cl [1-19] | 6.00 to 7.00 |
| COc1cccc(-n2c(C)c3cnn(-c4cncnc4)c(=O)c3c2C)c1 [1-95] | 6.00 to 7.00 |
| COc1cccc(-n2c(C)c3cnn(-c4cccc(CNC(C)=O)c4)c(=O)c3c2C)c1 [1-115] | 6.00 to 7.00 |
| CC(=O)c1ccc(-n2ncc3c(C)n(-c4cccc(N5CCC5)c4)c(C)c3c2=O)cc1 [1-171] | > 7.00 |
| Cc1c2cnn(-c3ccc(N4CCNC(=O)C4)cc3)c(=O)c2c(C)n1-c1cccc(N2CCC2)c1 [1-178] | > 7.00 |
| COc1ccc(-n2c(C)c3cnn(-c4ccc(CO)cc4)c(=O)c3c2C)cc1 [1-98] | 6.00 to 7.00 |
| COc1cccc(-n2c(C)c3cnn(-c4ccnc(OC)c4)c(=O)c3c2C)c1 [1-121] | > 7.00 |
| COCc1ccc(-n2ncc3c(C)n(-c4cccc(N5CCOCC5)c4)c(C)c3c2=O)cc1 [1-69] | 6.00 to 7.00 |
| COc1ccc(-n2ncc3c(C)n(-c4ccccc4)c(C)c3c2=O)cc1 [1-13, 2-(4-Methoxyphenyl)-5,7-dimethyl-6-phenyl-2,6-dihydro-1H-pyrrolo[3,4-d]pyridazin-1-one] | 6.00 to 7.00 |
| CCc1c2c(=O)n(-c3ccccc3)ncc2c(C)n1-c1cccc(OC)c1 [1-89] | 6.00 to 7.00 |
| Cc1c2cnn(-c3ccccc3)c(=O)c2c(C)n1-c1ccccc1 [1-4] | 6.00 to 7.00 |
| Cc1c2cnn(-c3ccc(S(N)(=O)=O)cc3)c(=O)c2c(C)n1-c1ccccc1 [1-28] | > 7.00 |

| Structure (SMILES) | pIC50 |
| --- | --- |
| Cc1ccccc1-n1c(C)c2cnn(-c3ccccc3)c(=O)c2c1C [1-7] | 6.00 to 7.00 |
| COc1ccc(-n2c(C)c3cnn(-c4cccc(C#N)c4)c(=O)c3c2C)cc1 [1-125] | 6.00 to 7.00 |
| Cc1cnc(-n2ncc3c(C)n(-c4cccc(OC5CC5)c4C)c(C)c3c2=O)nc1 [1-205] | > 7.00 |
| COc1cccc(-n2c(C)c3cnn(-c4cncc(OC)c4)c(=O)c3c2C)c1 [1-94] | 6.00 to 7.00 |
| Cc1ccc(-n2c(C)c3cnn(-c4cccc(C)c4)c(=O)c3c2C)cc1 [1-99] | 6.00 to 7.00 |
| COc1cccc(-n2c(C)c3cnn(-c4cccc(CO)c4)c(=O)c3c2C)c1 [1-114] | 6.00 to 7.00 |
| Cc1c2cnn(-c3ncc(F)cn3)c(=O)c2c(C)n1-c1cc(F)cc(N2CCC2)c1 [1-208] | > 7.00 |
| COc1cccc(-n2c(C)c3cnn(-c4ccc(C)cn4)c(=O)c3c2C)c1 [1-172] | 6.00 to 7.00 |
| COc1cccc(-n2c(C)c3cnn(-c4ncccn4)c(=O)c3c2C)c1Cl [1-203] | 6.00 to 7.00 |
| COc1cccc(-n2c(C)c3cnn(-c4ccc(-c5ccccc5)cc4)c(=O)c3c2C)c1 [1-71] | 6.00 to 7.00 |
| COc1cccc(-n2c(C)c3cnn(-c4ccc(OC)nc4)c(=O)c3c2C)c1 [1-127] | 6.00 to 7.00 |
| COc1ccc(-n2ncc3c(C)n(-c4cccc(N5CCOCC5)c4)c(C)c3c2=O)cc1 [1-67] | 6.00 to 7.00 |
| COCc1ccc(-n2ncc3c(C)n(-c4cccc(OC)c4)c(C)c3c2=O)cc1 [1-128] | 6.00 to 7.00 |
| COc1cccc(-n2c(C)c3cnn(-c4ccc(N5CCOCC5)nc4)c(=O)c3c2C)c1 [1-91] | 6.00 to 7.00 |
| COc1cccc(-n2c(C)c3cnn(-c4cc[nH]c(=O)c4)c(=O)c3c2C)c1 [1-129] | 6.00 to 7.00 |
| COc1cccc(-n2c(C)c3cnn(-c4cccc(C(N)=O)c4)c(=O)c3c2C)c1 [1-73] | 6.00 to 7.00 |
| COc1cccc(-n2c(C)c3cnn(-c4ccccc4F)c(=O)c3c2C)c1 [1-149] | > 7.00 |
| COc1cccc(-n2c(C)c3cnn(-c4ccc(CNC(C)=O)cc4)c(=O)c3c2C)c1 [1-65] | > 7.00 |
